Assay results published in patent publication US10815199B2, “NMDA antagonist prodrugs” (priority 2013, dated 2020).
Structures can show the parent of a compound that is named as a salt. Where two headings read alike, the source gives them in different places.

Tests used:
[1] = Hum Liver Assay (human liver S9 fraction); assay type: in vitro ADME
From the text: This example illustrates that different prodrugs of (S)-1-phenyl-2-(pyridin-2-yl)ethanamine, wherein R1 is C1-6 alkylC(O)O(C1-6 alkoxy), may be used to achieve differing rates of conversion (i.e., slow or rapid) to (S)-1-phenyl-2-(pyridin-2-yl)ethanamine to ascertain a suitable PK profile. […] Further, this Example illustrates that there is no expected loss in oral exposure when a prodrug is converted to free base. Conversion of a prodrug wherein R1 is C1-6 alkylC(O)O(C1-6 alkoxy) to (S)-1-phenyl-2-(pyridin-2-yl)ethanamine is expected to occur via an initial enzymatic hydrolysis of a functional group, such as an ester, followed by a spontaneous conversion to (S)-1-phenyl-2-(pyridin-2-yl)ethanamine. Enzymes involved are expected to be several non-specific, high capacity esterases, which can be shown by inhibiting the conversion with a non-selective esterase inhibitor but not inhibiting the conversion using selective inhibitors. Such esterases are expected to be distributed throughout the human body. Human Intestinal Fluid (HIF), human liver S9 fraction and human whole blood have been used to examine the pharmacokinetic properties of the prodrugs of (S)-1-phenyl-2-(pyridin-2-yl)ethanamine as well as the formation rate and formation extent of the (S)-1-phenyl-2-(pyridin-2-yl)ethanamine in different bodily compartments. The formation rate of (S)-1-phenyl-2-(pyridin-2-yl)ethanamine from different prodrugs of (S)-1-phenyl-2-(pyridin-2-yl)ethanamine differs markedly in all tested assays, as shown in Table 1.
Human Intestinal Fluids (HIF), Human Liver and Human Blood assays used to generate the results shown in Table 1 have been described in Malmborg J & Ploeger B A, J Pharmacol Toxicol Methods (2013) May-June 67(3) 203-13, which is incorporated by reference herein.
(§1) [drawing 48] is expected to occur via enzymatic hydrolysis at the proline C-terminus, releasing a dipeptide and (S)-1-phenyl-2-(pyridin-2-yl)ethanamine. The enzyme involved is expected to be dipeptidyl peptidase IV (DPPIV), which can be shown by inhibiting the conversion with a selective inhibitor of this enzyme. DPPIV is expected to be distributed throughout the human body. Human Intestinal Fluid (HIF), human liver S9 fraction and human whole blood have been used to examine the pharmacokinetic properties of prodrugs of (S)-1-phenyl-2-(pyridin-2-yl)ethanamine as well as the formation rate and formation extent of the (S)-1-phenyl-2-(pyridin-2-yl)ethanamine in different bodily compartments. Caco-2 cells have been used to evaluate the permeability and absorption potential of the prodrugs of (S)-1-phenyl-2-(pyridin-2-yl)ethanamine. The formation rate of (S)-1-phenyl-2-(pyridin-2-yl)ethanamine from different prodrugs of (S)-1-phenyl-2-(pyridin-2-yl)ethanamine differed in the tested assays, especially in human blood, as shown in Table 2.

Seizures in dog = Seizures in dog (NOEL/LOEL) after oral gavage; assay type: in vivo; settings: for LOEL Seizures in dog (Dose administered) / NOEL Seizures in dog (Dose administered): oral gavage, dose reflects free base concentration
Method: This example illustrates that when doses of prodrug of (S)-1-phenyl-2-(pyridin-2-yl)ethanamine dihydrochloride (Example 5) and (S)-1-phenyl-2-(pyridin-2-yl)ethanamine dihydrochloride were administered to dogs, the risk of seizures, as represented by NOEL and LOEL, was less with the prodrug.
(S)-1-phenyl-2-(pyridin-2-yl)ethanamine dihydrochloride and vehicle were administered once per day via oral gavage (water). Formulations were prepared twice, once weekly. Dosing formulations were stored and refrigerated (2-8° C.) in amber glass containers until required for dosing. A range of concentrations of (S)-1-phenyl-2-(pyridin-2-yl)ethanamine dihydrochloride in vehicle were prepared in order to keep the dose volume for all doses (1 mL/kg). Individual doses were based on the most recent body weights of dogs used in the study.
A prodrug of (S)-1-phenyl-2-(pyridin-2-yl)ethanamine as fumarate salt (example 5) and vehicle were administered once per day for 14 days via oral gavage at approximately the same time each day (±1 hour), (vehicle is 0.3 M gluconic acid pH 3.0). A range of concentrations of prodrug of (S)-1-phenyl-2-(pyridin-2-yl)ethanamine as fumarate salt in vehicle were prepared (for example 3, 10 and 30 mg/mL of prodrug of (S)-1-phenyl-2-(pyridin-2-yl)ethanamine) in order to keep the dose volume for all doses (2 mL/kg). The dosing formulations were warmed to room temperature by stirring for at least 30 minutes prior to dosing and continuously throughout the administration procedure. Individual doses were based on the most recent body weights of dogs used in the study.
Table 4 Compound 1 is (S)-1-phenyl-2-(pyridin-2-yl)ethanamine. […] In each case the highest blood concentration (Cmax) of free base (S)-1-phenyl-2-(pyridin-2-yl)ethanamine is measured. In the first case, the free base (S)-1-phenyl-2-(pyridin-2-yl)ethanamine is generated directly from Compound 1, administered as the dihydrochloride salt. In the second case, the free base (S)-1-phenyl-2-(pyridin-2-yl)ethanamine is generated via in vivo conversion from a prodrug of Compound 1, administered as the fumarate salt. The NOEL for seizures was higher when the prodrug of (S)-1-phenyl-2-(pyridin-2-yl)ethanamine as fumarate salt was administered compared to when (S)-1-phenyl-2-(pyridin-2-yl)ethanamine as dihydrochloride salt was administered.

Caco-2 permeability = assay type: in vitro ADME; settings: human; Caco-2 cells
From the text: as §1

[2] = Conversion of prodrug at increasing initial concentrations in human intestinal fluid (LC-UV); assay type: in vitro ADME; settings: initial concentrations 33, 100, 300 and 600 μmol/L, FIG. 1a and 1b
Method: FIGS. 1a and 1b illustrates the conversion of prodrug of (S)-1-phenyl-2-(pyridin-2-yl)ethanamine (Example 5) to (S)-1-phenyl-2-(pyridin-2-yl)ethanamine during an incubation period in human intestinal fluid. In particular, FIG. 1a illustrates prodrug of (S)-1-phenyl-2-(pyridin-2-yl)ethanamine (Example 5) concentration (initial concentrations of 30, 100, 300 and 600 as it transforms to (S)-1-phenyl-2-(pyridin-2-yl)ethanamine, during an incubation period in human intestinal fluid. FIG. 1b illustrates (S)-1-phenyl-2-(pyridin-2-yl)ethanamine concentration, as it converts from prodrug of (S)-1-phenyl-2-(pyridin-2-yl)ethanamine (Example 5, initial concentrations of 30, 100, 300 and 600 μM), during an incubation period in human intestinal fluid. […]
Stock solutions of prodrug of (S)-1-phenyl-2-(pyridin-2-yl)ethanamine (0.33, 1, 3 and 6 mmol/L) were prepared by adding a volume (8.25, 25, 75 and 150 μL) of 20 mmol/L solution of prodrug of (S)-1-phenyl-2-(pyridin-2-yl)ethanamine dissolved in DMSO, to FaSSIF-v2 (491.75, 475, 425 and 350 μL). […] The conversion rate from prodrug to (S)-1-phenyl-2-(pyridin-2-yl)ethanamine was determined by fitting the measured prodrug and (S)-1-phenyl-2-(pyridin-2-yl)ethanamine concentrations versus time.

[3] = human, s9, Table 1, read-out: Prodrug Clint Hum Liver S9
[4] = human, s9, Table 2, read-out: Prodrug Clint Hum Liver S9

SMILES	microsomal CLint [1, 3]	microsomal CLint [1, 4]	Papp (Caco-2 permeability)	also measured
CC(C)C(=O)OC(OC(=O)N[C@@H](Cc1ccccn1)c1ccccc1)C(C)C (single isomer, unassigned) [Example 2 Diastereomer 2]	1900 µL/min/mg	–	–	–
CC(OC(=O)N[C@@H](Cc1ccccn1)c1ccccc1)OC(=O)C(C)C (single isomer, unassigned) [Example 4 Diastereomer 1]	1200 µL/min/mg	–	–	–
Cl.Cl.N[C@@H](Cc1ccccn1)c1ccccc1 [Compound 1, as di-HCl salt, (S)-1-phenyl-2-(pyridin-2-yl)ethanamine dihydrochloride, reference compound]	–	–	–	LOEL Seizures in dog (Dose administered) (Seizures in dog): (20 mg/kg); NOEL Seizures in dog (Dose administered) (Seizures in dog): (10 mg/kg)
CC(C)C(=O)OCOC(=O)N[C@@H](Cc1ccccn1)c1ccccc1 [Example 1, (S)-(1-Phenyl-2-(pyridin-2-yl)ethylcarbamoyloxy)methyl isobutyrate]	2300 µL/min/mg	–	–	–
CC(C)[C@H](N)C(=O)N1CCC[C@H]1C(=O)N[C@@H](Cc1ccccn1)c1ccccc1 [Example 5, (S)-1-((S)-2-Amino-3-methylbutanoyl)-N—((S)-1-phenyl-2-(pyridin-2-yl)ethyl)pyrrolidine-2-carboxamide]	–	120 µL/min/mg	1.4 ×10⁻⁶ cm/s	risk of seizures, as represented by NOEL and LOEL (Seizures in dog; dogs, prodrug versus (S)-1-phenyl-2-(pyridin-2-yl)ethanamine dihydrochloride): less; increase in concentration of (S)-1-phenyl-2-(pyridin-2-yl)ethanamine with increasing doses of prodrug [2]: less than proportional increases
NCCCC[C@H](N)C(=O)N1CCC[C@H]1C(=O)N[C@@H](Cc1ccccn1)c1ccccc1 [Example 6, (S)-1-((S)-2,6-Diaminohexanoyl)-N—((S)-1-phenyl-2-(pyridin-2-yl)ethyl)pyrrolidine-2-carboxamide]	–	73 µL/min/mg	0.07 ×10⁻⁶ cm/s	–
N[C@@H](Cc1c[nH]cn1)C(=O)N1CCC[C@H]1C(=O)N[C@@H](Cc1ccccn1)c1ccccc1 [Example 7, (S)-1-((S)-2-Amino-3-(1H-imidazol-4-yl)propanoyl)-N—((S)-1-phenyl-2-(pyridin-2-yl)ethyl)pyrrolidine-2-carboxamide]	–	33 µL/min/mg	1.6 ×10⁻⁶ cm/s	–
N[C@@H](Cc1ccc(O)cc1)C(=O)N1CCC[C@H]1C(=O)N[C@@H](Cc1ccccn1)c1ccccc1 [Example 8, 2-((S)-2-((S)-1-((S)-2-Amino-3-(4-hydroxyphenyl)propanoyl)pyrrolidine-2-carboxamido)-2-phenylethyl)pyridine dihydrochloride]	–	–	3.2 ×10⁻⁶ cm/s	microsomal CLint ([1]; Table 2, read-out: Prodrug Clint Hum Liver S9): 51 µL/min/mg
N=C(N)NCCC[C@H](N)C(=O)N1CCC[C@H]1C(=O)N[C@@H](Cc1ccccn1)c1ccccc1 [Example 12, 2-[(2S)-2-{[(2S)-1-[(2S)-2-Azaniumyl-5-{[azaniumyl(iminiumyl)methyl]amino}pentanoyl]-pyrrolidin-2-yl]formamido}-2-phenylethyl]pyridin-1-ium tetrachloride]	–	69 µL/min/mg	8.6 ×10⁻⁶ cm/s	–
CC(C)[C@H](N)C(=O)N1CCC[C@H]1C(=O)N[C@@H](Cc1ccccn1)c1ccccc1 [Prodrug of Compound 1, as fumarate salt, (S)-1-((S)-2-Amino-3-methylbutanoyl)-N-((S)-1-phenyl-2-(pyridin-2-yl)ethyl)pyrrolidine-2-carboxamide fumerate]	–	–	–	LOEL Seizures in dog (Dose administered) (Seizures in dog): (60 mg/kg); NOEL Seizures in dog (Dose administered) (Seizures in dog): (20 mg/kg)
